# Literature values as cited in patent US8101633B2, “Preparation and utility of substituted imidazopyridine compounds with hypnotic effects” (Auspex Pharmaceuticals, Inc., priority 2006, dated 2012).
# Tested on: cytochrome P450
# Details: background statement
smiles,measurement,value
"Cc1ccc(-c2nc3ccc(C)cn3c2CC(=O)N(C)C)cc1 [zolpidem, Zolpidem]",share of net intrinsic clearance accounted for by imidazopyridyl methyl group oxidation,~12%
same,share of net intrinsic clearance accounted for by oxidation of the benzylic methyl group,approximately 84%
